Test results: patent publication US11149011B2, “Compounds and methods for IDO and TDO modulation, and indications therefor” (Plexxikon Inc., priority 2018, dated 2021)

Experiments:
[1] = biological target: T1, IDO1-expressing HEK293 cell clones (Homo sapiens, UniProt P14902); experiment: Cell based kynurenine assay, IDO1-expressing HEK293 cell clones; conditions: HEK293 cells, 24 hours of incubation, geometric mean; read-out: HEK293 IDO1 Kynurenine GMean IC50 (μM) (Cellular Assay)
T1 construct: expressed in transfected cells; host or cells: HEK293
T1 sequence (P14902 whole entry): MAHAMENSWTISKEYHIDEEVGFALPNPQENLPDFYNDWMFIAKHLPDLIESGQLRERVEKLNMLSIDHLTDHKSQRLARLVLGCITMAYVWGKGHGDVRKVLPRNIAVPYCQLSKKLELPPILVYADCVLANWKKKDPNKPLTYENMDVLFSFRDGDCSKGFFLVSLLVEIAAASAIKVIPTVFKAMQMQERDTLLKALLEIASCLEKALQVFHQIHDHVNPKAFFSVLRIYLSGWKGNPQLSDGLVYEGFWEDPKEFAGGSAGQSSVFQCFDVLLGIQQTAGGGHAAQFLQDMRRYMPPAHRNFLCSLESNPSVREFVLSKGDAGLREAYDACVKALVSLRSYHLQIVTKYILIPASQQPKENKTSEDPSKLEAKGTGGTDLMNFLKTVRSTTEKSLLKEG
How it was run: (§1)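 IC50s come from nonlinear regression of % inhibition of kynurenine in culture supernatant after 24 hours of compound exposure. Controls were 0.2% DMSO-treated cells and media alone. Cells were stable human IDO1- or TDO-expressing HEK293 clones (CMV promoter), plated at 2.5×10^4 per well.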

IDO1 = biological target: T2, IDO1 (Homo sapiens, UniProt P14902); experiment: IDO enzymatic assay; assay type: biochemical; conditions: geometric mean; read-out: IDO1 GMean: IC50 (μM) (Biochemical Assay)
T2 construct: His tag (N); made in house; host or cells: E. coli
T2 sequence (P14902 whole entry): as above
How it was run: (§2)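 Kynurenine formed after TCA hydrolysis (30 min, 50 °C) was quantified relative to full-reaction and no-enzyme controls, and IC50s were fitted. TDO reactions used 1 nM enzyme with 350 μM Trp and 0.4 μM methylene blue for 70 min; IDO reactions used 6 nM enzyme, 10 μM Trp, 5 μM methylene blue for 20 min; both at pH 6.5, room temperature.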

[2] = biological target: T3, TDO-expressing HEK293 cell clones (Homo sapiens, UniProt P48775); experiment: Cell based kynurenine assay, TDO-expressing HEK293 cell clones; conditions: HEK293 cells, 24 hours of incubation, geometric mean; read-out: HEK293 TDO Kynurenine GMean IC50 (μM) (Cellular Assay)
T3 construct: expressed in transfected cells; host or cells: HEK293
T3 sequence (P48775 whole entry): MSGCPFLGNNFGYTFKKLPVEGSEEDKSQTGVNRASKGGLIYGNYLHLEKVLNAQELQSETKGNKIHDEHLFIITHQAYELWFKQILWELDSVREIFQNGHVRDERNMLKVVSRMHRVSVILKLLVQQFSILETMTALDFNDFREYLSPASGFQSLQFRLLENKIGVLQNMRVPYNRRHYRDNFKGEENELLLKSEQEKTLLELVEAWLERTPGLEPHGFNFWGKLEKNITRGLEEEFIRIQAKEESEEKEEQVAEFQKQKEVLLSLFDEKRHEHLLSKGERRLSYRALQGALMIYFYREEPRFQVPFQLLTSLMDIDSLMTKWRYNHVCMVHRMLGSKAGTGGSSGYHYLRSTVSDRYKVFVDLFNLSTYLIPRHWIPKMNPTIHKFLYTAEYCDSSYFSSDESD
How it was run: as §1

TDO = biological target: T4, TDO (Homo sapiens, UniProt P48775); experiment: TDO enzymatic assay; conditions: geometric mean; read-out: TDO GMean: IC50 (μM) (Biochemical Assay)
T4 construct: His tag (N); made in house; host or cells: E. coli
T4 sequence (P48775 whole entry): as above
How it was run: as §2

Row | SMILES | IC50 [1] | IC50 (IDO1) | IC50 [2] | IC50 (TDO)
1 | CNCC(=O)N1CCC(C(C)(C)[C@H](O)c2cc(Cl)cc3cn[nH]c23)CC1 [Compound P-0128, (S)-1-(4-(1-(5-chloro-1H-indazol-7-yl)-1-hydroxy-2-methylpropan-2-yl)piperidin-1-yl)-2-(methylamino)ethan-1-one] | 0.0001 to 10 µM | 0.0001 to 10 µM | 0.0001 to 10 µM | 0.0001 to 10 µM
2 | CN(O)C(=O)N1CCC(C(C)(C)[C@H](O)c2cc(Cl)cc3cn[nH]c23)CC1 [Compound P-0129, (S)-4-(1-(5-chloro-1H-indazol-7-yl)-1-hydroxy-2-methylpropan-2-yl)-N-hydroxy-N-methylpiperidine-1-carboxamide] | 0.0001 to 10 µM | 0.0001 to 10 µM | 0.0001 to 10 µM | 0.0001 to 10 µM
3 | CON(C)C(=O)N1CCC(C(C)(C)[C@H](O)c2cc(Cl)cc3cn[nH]c23)CC1 [Compound P-0130, (S)-4-(1-(5-chloro-1H-indazol-7-yl)-1-hydroxy-2-methylpropan-2-yl)-N-methoxy-N-methylpiperidine-1-carboxamide] | 0.0001 to 10 µM | 0.0001 to 10 µM | 0.0001 to 10 µM | 0.0001 to 10 µM
4 | C[C@@H](O)C(=O)N1CCC(C(C)(C)[C@H](O)c2cc(Cl)cc3cn[nH]c23)CC1 [Compound P-0131, (R)-1-(4-((S)-1-(5-chloro-1H-indazol-7-yl)-1-hydroxy-2-methylpropan-2-yl)piperidin-1-yl)-2-hydroxypropan-1-one] | 0.0001 to 10 µM | 0.0001 to 10 µM | 0.0001 to 10 µM | 0.0001 to 10 µM
5 | CC(C)(O)C(=O)N1CCC(C(C)(C)[C@H](O)c2cc(Cl)cc3cn[nH]c23)CC1 [Compound P-0132, (S)-1-(4-(1-(5-chloro-1H-indazol-7-yl)-1-hydroxy-2-methylpropan-2-yl)piperidin-1-yl)-2-hydroxy-2-methylpropan-1-one] | 0.0001 to 10 µM | 0.0001 to 10 µM | 0.0001 to 10 µM | 0.0001 to 10 µM
6 | CC(C)(C1CCN(C(=O)C2(O)CC2)CC1)[C@H](O)c1cc(Cl)cc2cn[nH]c12 [Compound P-0133, (S)-(4-(1-(5-chloro-1H-indazol-7-yl)-1-hydroxy-2-methylpropan-2-yl)piperidin-1-yl)(1-hydroxycyclopropyl)methanone] | 0.0001 to 10 µM | 0.0001 to 10 µM | 0.0001 to 10 µM | 0.0001 to 10 µM
7 | CC(C)(C1CCN(C(=O)CCO)CC1)[C@H](O)c1cc(Cl)cc2cn[nH]c12 [Compound P-0134, (S)-1-(4-(1-(5-chloro-1H-indazol-7-yl)-1-hydroxy-2-methylpropan-2-yl)piperidin-1-yl)-3-hydroxypropan-1-one] | 0.0001 to 10 µM | 0.0001 to 10 µM | 0.0001 to 10 µM | 0.0001 to 10 µM
8 | CS(=O)(=O)N1CCC2(CC1)CC(O)(c1c(F)c(Cl)cc3cn[nH]c13)C2 [Compound P-0136, 2-(5-chloro-6-fluoro-1H-indazol-7-yl)-7-(methylsulfonyl)-7-azaspiro[3.5]nonan-2-ol] | 0.0001 to 10 µM | 0.0001 to 10 µM | 0.0001 to 10 µM | 0.0001 to 10 µM
9 | CC(C)(C)OC(=O)N1CCC(C(C)(C)[C@H](O)c2cc(Cl)cc3[nH]ncc23)CC1 [Compound P-0142, tert-butyl (S)-4-(1-(6-chloro-1H-indazol-4-yl)-1-hydroxy-2-methylpropan-2-yl)piperidine-1-carboxylate] | > 10 µM | 0.0001 to 10 µM | 0.0001 to 10 µM | 0.0001 to 10 µM
10 | [2H]C([2H])([2H])C(C1CCN(C(=O)CO)CC1)(C(O)c1cc(Cl)cc2cn[nH]c12)C([2H])([2H])[2H] (stereo not shown) [Compound P-0143, 1-(4-(2-((5-chloro-1H-indazol-7-yl)(hydroxy)methyl)propan-2-yl-1,1,1,3,3,3-d6)piperidin-1-yl)-2-hydroxyethan-1-one] | 0.0001 to 10 µM | 0.0001 to 10 µM | 0.0001 to 10 µM | 0.0001 to 10 µM
11 | CC(C)(C)OC(=O)N1CCC(C(C)(C)[C@@H](O)c2cc(Cl)cc3[nH]ncc23)CC1 [Compound P-0144, tert-butyl (R)-4-(1-(6-chloro-1H-indazol-4-yl)-1-hydroxy-2-methylpropan-2-yl)piperidine-1-carboxylate] | > 10 µM | 0.0001 to 10 µM | 0.0001 to 10 µM | 0.0001 to 10 µM
12 | CC(C)(C1CCN(C(=O)CO)CC1)[C@H](O)c1cc(Cl)cc2[nH]ncc12 [Compound P-0145, (S)-1-(4-(1-(6-chloro-1H-indazol-4-yl)-1-hydroxy-2-methylpropan-2-yl)piperidin-1-yl)-2-hydroxyethan-1-one] | > 10 µM | 0.0001 to 10 µM | 0.0001 to 10 µM | 0.0001 to 10 µM
13 | CC(C)(C1CCN(C(=O)CO)CC1)[C@@H](O)c1cc(Cl)cc2[nH]ncc12 [Compound P-0146, (R)-1-(4-(1-(6-chloro-1H-indazol-4-yl)-1-hydroxy-2-methylpropan-2-yl)piperidin-1-yl)-2-hydroxyethan-1-one] | > 10 µM | 0.0001 to 10 µM | 0.0001 to 10 µM | 0.0001 to 10 µM
14 | CCS(=O)(=O)N1CCC(C(C)(C)[C@H](O)c2cc(Cl)cc3[nH]ncc23)CC1 [Compound P-0147, (S)-1-(6-chloro-1H-indazol-4-yl)-2-(1-(ethylsulfonyl)piperidin-4-yl)-2-methylpropan-1-ol] | > 10 µM | 0.0001 to 10 µM | 0.0001 to 10 µM | 0.0001 to 10 µM
15 | CCS(=O)(=O)N1CCC(C(C)(C)[C@@H](O)c2cc(Cl)cc3[nH]ncc23)CC1 [Compound P-0148, (R)-1-(6-chloro-1H-indazol-4-yl)-2-(1-(ethylsulfonyl)piperidin-4-yl)-2-methylpropan-1-ol] | > 10 µM | 0.0001 to 10 µM | 0.0001 to 10 µM | 0.0001 to 10 µM
16 | CC(C)(C1CCN(C(=O)NOCC2CC2)CC1)[C@H](O)c1cc(Cl)cc2cn[nH]c12 [Compound P-0600, (S)-4-(1-(5-chloro-1H-indazol-7-yl)-1-hydroxy-2-methylpropan-2-yl)-N-(cyclopropylmethoxy)piperidine-1-carboxamide] | 0.0001 to 10 µM | 0.0001 to 10 µM | 0.0001 to 10 µM | 0.0001 to 10 µM
